# Assay results as given in patent US20190070081A1, “DEODORIZING COSMETIC COMPOSITION AND METHOD FOR PREPARING SAME” (EINS CO., LTD., priority 2015, published 2019).
# Test system: skin tissue model
# Assay: Skin irritation test: MTT effective time (ET-50) viable cell assay on skin tissue model
# Format: cell-based
# Conditions: for % Viability: skin tissue
# Protocol: The skin inflammation potential of a cleaning gel of product No. 1 (also known as Double. S Gel (Lot No. 15730A2); hereinafter, referred to as experimental product)) was evaluated using commercially available MTT effective time (ET-50) live cell experiment test and a skin tissue model.
# The experiments performed at the Life Science Institute (BioScience Laboratories, Inc.) began on Sep. 2, 2015 and were completed on Sep. 4, 2015. One deviation in SOP generated during the experiments is shown in Tables 1 to 7 below, the protocols and/or SOP deviation recording formats (form number: 99-QA-004) of FIGS. 1 and 2. […] The skin tissue samples were exposed to the experimental product for 1 hour, 4 hours, or 24 hours.
# The experimental product was tested undiluted, as provided by the sponsor. Three untreated negative control dermal tissue specimens were exposed for 24 hours.
# The first tissue specimen, the second tissue specimen, and the third tissue specimen were exposed to 1.0% Triton X-100 (Lot No. 082615BBA) as a positive control for 1, 4, and 24 hours, respectively.
# At the same time as the experimental procedure, MTT control was evaluated, and the evaluation was regarded as a result of direct reduction of the MTT product. […] During the experimental procedure, the frozen tissue was exposed to the experimental product to determine whether the experimental product was effectively washed from tissue.
# The absorbance of the specimens was determined using a VERSA Max™ Tunable Microplate Reader (with SOFTmax® PRO Software) set to 570 nm with several […] aliquots of isopropyl alcohol.
# Absorbance values were converted into the probabilistic feasibility of tissue culture by SOFTmax® PRO Software. These values were expressed as time-dependent by SOFTmax® PRO Software, and then ET-50 was determined by interpolation. ET-50 is an estimated time when the probabilistic feasibility of tissues falls to 50%.
substance,measurement,setting,value
Triton X-100 [Positive Control],Irritancy Classification (Expected In-Vivo Irritancy),from MTT ET-50,Moderate to Mild Irritation
same,% Viability,1 hour exposure,66.51%
same,% Viability,4 hours exposure,78.40%
same,% Viability,24 hours exposure,6.06%
same,MTT ET-50,"tested undiluted, skin tissue exposed 1, 4, 24 hours, time at which viability falls to 50%, by interpolation",4.65 h
